ChEMBL document CHEMBL2176923, “Discovery of (5S,6S,9R)-5-amino-6-(2,3-difluorophenyl)-6,7,8,9-tetrahydro-5H-cyclohepta[b]pyridin-9-yl 4-(2-oxo-2,3-dihydro-1H-imidazo[4,5-b]pyridin-1-yl)piperidine-1-carboxylate (BMS-927711): an oral calcitonin gene-related peptide (CGRP) antagonist in clinical trials for treating migraine” (J Med Chem, 2012)
≈ marks a conversion by molar mass, not a printed value. Calls of active or inactive are those of the source. The rule behind the calls is not given here.

Assays:
[1] = target: T1, Calcitonin gene-related peptide type 1 receptor (Homo sapiens, UniProt O60894+Q16602); test: Displacement of [125I]-CGRP from CGRP receptor in human SK-N-MC cells after 2 hrs by gamma scintillation counter analysis; format: cell-based
[2] = Fraction unbound in human plasma; format: ADME, cell-free
[3] = Half life in human liver microsomes; format: ADME, Microsome
[4] = Aqueous solubility of the compound in amorphous form; format: physicochemical
Cytochrome P450 2D6 = Cytochrome P450 2D6 (Homo sapiens, UniProt P10635); test: Inhibition of human recombinant CYP2D6 using 3-[2-(N,N-diethyl-Nmethylamino) ethyl]-7-methoxy-4-methylcoumarin as substrate after 45 mins by fluorescence assay; format: ADME
[5] = Aqueous solubility of the compound in crystalline form; format: physicochemical
Homo sapiens = species on record: Homo sapiens; test: Toxicity in human up to 600 mg; format: organism-based; details: in vivo
Salmonella typhimurium = test: Genotoxicity in Salmonella typhimurium by Ames test; format: toxicity, organism-based; details: salmonella enterica subsp. enterica serovar typhimurium
Cytochrome P450 2C9 = Cytochrome P450 2C9 (Homo sapiens, UniProt P11712); test: Inhibition of human recombinant CYP2C9 using 7-methoxy-4-trifluoromethylcoumarin as substrate after 45 mins by fluorescence assay; format: ADME
[6] = Plasma concentration in Harlan marmoset at 7 mg/kg, sc after 60 to 105 mins; format: ADME, organism-based, Callithrix jacchus; design: dose 7 mg/kg, route subcutaneous; details: in vivo
[7] = Permeability of the compound at 100 uM at pH 5.5 after 4 hrs by PAMPA; format: ADME; details: read-out: permeability
[8] = target: Voltage-gated L-type calcium channel (Homo sapiens, UniProt Q13936+Q13698+Q01668+O60840); test: Inhibition of L type calcium channel expressed in HEK293 cells at 10 to 30 uM; format: cell-based
[9] = Oral bioavailability in overnight fasted cynomolgus monkey at 10 mg/kg administered as suspension of crystalline free base; format: ADME, organism-based, Macaca fascicularis; details: in vivo
[10] = Plasma concentration in Harlan marmoset at 7 mg/kg, sc at 15 mins; format: ADME, organism-based, Callithrix jacchus; design: dose 7 mg/kg, route subcutaneous
Cytochrome P450 1A2 = target: T2, Cytochrome P450 1A2 (Homo sapiens, UniProt P05177); test: Inhibition of human recombinant CYP1A2 using 3-cyano-7-ethoxycoumarine as substrate after 45 mins by fluorescence assay; format: ADME
T2 sequence (P05177 whole entry): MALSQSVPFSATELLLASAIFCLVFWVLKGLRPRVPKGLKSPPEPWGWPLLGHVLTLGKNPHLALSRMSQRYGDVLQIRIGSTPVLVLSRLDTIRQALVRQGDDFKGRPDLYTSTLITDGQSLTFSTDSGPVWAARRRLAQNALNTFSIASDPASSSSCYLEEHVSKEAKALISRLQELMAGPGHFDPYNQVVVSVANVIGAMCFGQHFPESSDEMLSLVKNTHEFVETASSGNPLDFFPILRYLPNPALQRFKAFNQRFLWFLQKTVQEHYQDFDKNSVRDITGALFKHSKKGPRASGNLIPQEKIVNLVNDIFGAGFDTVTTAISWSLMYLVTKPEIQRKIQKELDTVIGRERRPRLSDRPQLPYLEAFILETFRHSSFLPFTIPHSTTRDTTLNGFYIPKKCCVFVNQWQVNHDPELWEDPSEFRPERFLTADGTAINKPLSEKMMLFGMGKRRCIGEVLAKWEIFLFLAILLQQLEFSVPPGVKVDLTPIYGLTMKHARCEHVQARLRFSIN

[11] = Oral bioavailability in overnight fasted cynomolgus monkey at 10 mg/kg administered as solution; format: ADME, organism-based, Macaca fascicularis; details: in vivo
Cytochrome P450 2A6 = target: T3, Cytochrome P450 2A6 (Homo sapiens, UniProt P11509); test: Inhibition of human recombinant CYP2A6 after 45 mins by fluorescence assay; format: ADME
T3 sequence (P11509 whole entry): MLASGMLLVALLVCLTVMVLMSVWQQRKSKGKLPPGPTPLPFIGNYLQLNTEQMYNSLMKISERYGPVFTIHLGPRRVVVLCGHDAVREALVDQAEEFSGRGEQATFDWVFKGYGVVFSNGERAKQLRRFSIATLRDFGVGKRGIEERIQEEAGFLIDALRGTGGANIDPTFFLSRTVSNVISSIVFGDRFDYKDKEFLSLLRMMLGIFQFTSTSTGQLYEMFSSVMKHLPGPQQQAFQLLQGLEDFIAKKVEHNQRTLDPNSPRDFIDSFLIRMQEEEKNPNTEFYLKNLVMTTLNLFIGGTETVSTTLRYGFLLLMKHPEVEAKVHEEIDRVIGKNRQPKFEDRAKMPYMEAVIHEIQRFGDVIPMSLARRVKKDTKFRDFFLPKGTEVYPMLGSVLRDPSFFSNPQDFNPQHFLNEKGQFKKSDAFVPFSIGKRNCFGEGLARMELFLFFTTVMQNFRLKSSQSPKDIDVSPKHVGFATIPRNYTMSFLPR

Callithrix jacchus [12] = test: Antagonist activity at CGRP receptor in Harlan marmoset assessed as inhibition of CGRP-induced facial blood flow at 7 mg/kg, sc administered 45 mins interval for 2 hrs post alphaCGRP challenge measured at 15 mins by laser droppler flowmetry relative to control; format: functional; details: route subcutaneous
HEK293 = test: Inhibition of L type sodium channel expressed in HEK293 cells at 10 to 30 uM; format: cell-based; details: Homo sapiens
[13] = target: Voltage-gated inwardly rectifying potassium channel KCNH2 (Homo sapiens, UniProt Q12809); test: Inhibition of human ERG alpha subunit expressed in HEK293 cells at 10 to 30 uM; format: cell-based
[14] = Oral bioavailability in fasted Sprague-Dawley rat at 10 mg/kg administered as solution; format: ADME, organism-based; details: in vivo
Callithrix jacchus [15] = test: Antagonist activity at CGRP receptor in Harlan marmoset assessed as inhibition of alphaCGRP-induced facial blood flow at 7 mg/kg, sc administered 45 mins interval for 2 hrs post alphaCGRP challenge measured after 60 to 105 mins by laser droppler flowmetry relative to control; format: functional; details: route subcutaneous
Cytochrome P450 2E1 = Cytochrome P450 2E1 (Homo sapiens, UniProt P05181); test: Inhibition of human recombinant CYP2E1 after 45 mins by fluorescence assay; format: ADME
[16] = Permeability of the compound at 100 uM at pH 7.4 after 4 hrs by PAMPA; format: ADME; details: read-out: permeability
[17] = target: T1, Calcitonin gene-related peptide type 1 receptor; test: Antagonist activity at CGRP receptor in human SK-N-MC cells assessed as inhibition of CGRP-stimulated cAMP production preincubated for 15 mins prior to CGRP challenge measured after 30 mins by HTRF assay; format: functional, cell-based
Cytochrome P450 2B6 = target: T4, Cytochrome P450 2B6 (Homo sapiens, UniProt P20813); test: Inhibition of human recombinant CYP2B6 after 45 mins by fluorescence assay; format: ADME
T4 sequence (P20813 whole entry): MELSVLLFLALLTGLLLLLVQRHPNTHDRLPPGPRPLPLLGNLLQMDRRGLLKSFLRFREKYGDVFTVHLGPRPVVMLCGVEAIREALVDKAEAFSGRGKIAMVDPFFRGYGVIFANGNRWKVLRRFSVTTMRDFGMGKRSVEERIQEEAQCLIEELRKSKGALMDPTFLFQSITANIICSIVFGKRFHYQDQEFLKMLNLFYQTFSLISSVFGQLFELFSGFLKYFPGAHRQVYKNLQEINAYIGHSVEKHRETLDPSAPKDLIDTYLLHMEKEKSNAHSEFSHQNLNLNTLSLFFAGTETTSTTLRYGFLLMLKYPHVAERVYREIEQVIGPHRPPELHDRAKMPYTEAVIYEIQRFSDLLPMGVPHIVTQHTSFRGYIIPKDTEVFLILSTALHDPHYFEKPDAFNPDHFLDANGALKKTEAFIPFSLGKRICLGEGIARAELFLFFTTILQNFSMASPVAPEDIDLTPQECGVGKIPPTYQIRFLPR

Cytochrome P450 2C19 = Cytochrome P450 2C19 (Homo sapiens, UniProt P33261); test: Inhibition of human recombinant CYP2C19 using 3-cyano-7-ethoxycoumarine as substrate after 45 mins by fluorescence assay; format: ADME
Cytochrome P450 2C19, sequence (P33261 whole entry): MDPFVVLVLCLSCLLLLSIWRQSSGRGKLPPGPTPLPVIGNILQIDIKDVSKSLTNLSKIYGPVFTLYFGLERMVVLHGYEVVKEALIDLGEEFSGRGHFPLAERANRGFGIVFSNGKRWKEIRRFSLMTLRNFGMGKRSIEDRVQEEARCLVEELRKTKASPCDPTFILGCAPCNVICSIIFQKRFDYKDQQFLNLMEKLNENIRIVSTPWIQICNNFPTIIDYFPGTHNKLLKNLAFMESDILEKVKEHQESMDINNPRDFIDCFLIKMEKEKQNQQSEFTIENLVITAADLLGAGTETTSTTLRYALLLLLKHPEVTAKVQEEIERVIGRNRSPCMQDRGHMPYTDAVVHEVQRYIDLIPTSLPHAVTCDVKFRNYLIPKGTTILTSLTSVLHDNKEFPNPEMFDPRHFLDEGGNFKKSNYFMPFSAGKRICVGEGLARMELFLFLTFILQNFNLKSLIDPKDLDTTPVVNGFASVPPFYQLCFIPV

T1 sequence (Q16602 whole entry, one chain of several): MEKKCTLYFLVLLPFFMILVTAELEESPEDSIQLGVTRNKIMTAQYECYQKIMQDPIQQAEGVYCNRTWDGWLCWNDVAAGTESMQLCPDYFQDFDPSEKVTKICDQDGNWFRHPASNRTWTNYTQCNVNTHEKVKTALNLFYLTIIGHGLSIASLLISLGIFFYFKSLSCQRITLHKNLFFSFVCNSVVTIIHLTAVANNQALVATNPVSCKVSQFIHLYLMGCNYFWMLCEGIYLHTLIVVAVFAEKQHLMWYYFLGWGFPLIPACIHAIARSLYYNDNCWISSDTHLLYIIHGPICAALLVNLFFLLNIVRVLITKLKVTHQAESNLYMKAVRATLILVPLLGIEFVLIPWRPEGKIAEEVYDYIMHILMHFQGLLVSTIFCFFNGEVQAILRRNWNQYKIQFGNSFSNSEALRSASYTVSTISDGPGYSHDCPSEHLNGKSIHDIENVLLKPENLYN
Cytochrome P450 2D6, sequence (P10635 whole entry): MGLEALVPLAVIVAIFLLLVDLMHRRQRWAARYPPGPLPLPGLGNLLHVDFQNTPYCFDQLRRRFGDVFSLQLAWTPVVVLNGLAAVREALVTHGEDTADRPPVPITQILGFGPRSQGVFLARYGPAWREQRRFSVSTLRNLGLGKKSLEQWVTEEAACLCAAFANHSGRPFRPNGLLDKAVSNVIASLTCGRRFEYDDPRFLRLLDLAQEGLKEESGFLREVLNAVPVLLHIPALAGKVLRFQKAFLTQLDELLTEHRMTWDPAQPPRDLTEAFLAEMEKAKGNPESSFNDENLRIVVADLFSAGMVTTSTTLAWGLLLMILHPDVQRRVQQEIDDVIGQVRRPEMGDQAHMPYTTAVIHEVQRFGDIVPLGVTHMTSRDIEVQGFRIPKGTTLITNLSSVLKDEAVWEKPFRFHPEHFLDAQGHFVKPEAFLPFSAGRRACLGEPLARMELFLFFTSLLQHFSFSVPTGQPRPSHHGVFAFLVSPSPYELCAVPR
Cytochrome P450 2E1, sequence (P05181 whole entry): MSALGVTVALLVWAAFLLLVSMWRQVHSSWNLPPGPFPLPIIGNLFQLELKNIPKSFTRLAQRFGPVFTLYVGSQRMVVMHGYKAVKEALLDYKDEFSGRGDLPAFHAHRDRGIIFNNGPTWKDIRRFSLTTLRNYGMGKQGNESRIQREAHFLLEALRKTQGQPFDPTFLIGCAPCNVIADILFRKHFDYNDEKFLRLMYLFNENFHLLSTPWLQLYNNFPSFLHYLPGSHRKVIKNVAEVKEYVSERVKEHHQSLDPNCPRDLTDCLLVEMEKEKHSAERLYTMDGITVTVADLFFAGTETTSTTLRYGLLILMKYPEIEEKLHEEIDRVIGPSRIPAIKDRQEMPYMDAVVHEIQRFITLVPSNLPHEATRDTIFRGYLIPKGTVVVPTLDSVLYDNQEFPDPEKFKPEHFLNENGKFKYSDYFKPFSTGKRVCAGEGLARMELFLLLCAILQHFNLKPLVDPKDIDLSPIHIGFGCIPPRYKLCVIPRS
Cytochrome P450 2C9, sequence (P11712 whole entry): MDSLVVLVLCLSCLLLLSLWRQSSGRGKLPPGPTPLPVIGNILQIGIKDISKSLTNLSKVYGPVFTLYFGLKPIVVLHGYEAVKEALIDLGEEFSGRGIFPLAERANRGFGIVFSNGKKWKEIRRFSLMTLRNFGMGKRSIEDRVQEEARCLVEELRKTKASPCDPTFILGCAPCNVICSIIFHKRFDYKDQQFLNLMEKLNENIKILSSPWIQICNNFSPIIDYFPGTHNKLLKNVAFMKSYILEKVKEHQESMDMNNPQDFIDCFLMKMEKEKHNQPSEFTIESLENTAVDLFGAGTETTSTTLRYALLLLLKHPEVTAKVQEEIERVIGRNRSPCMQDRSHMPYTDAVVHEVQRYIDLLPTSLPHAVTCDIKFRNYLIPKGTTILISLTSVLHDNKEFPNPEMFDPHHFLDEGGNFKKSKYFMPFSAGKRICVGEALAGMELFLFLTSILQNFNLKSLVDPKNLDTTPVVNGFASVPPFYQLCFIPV
Voltage-gated inwardly rectifying potassium channel KCNH2, sequence (Q12809 whole entry): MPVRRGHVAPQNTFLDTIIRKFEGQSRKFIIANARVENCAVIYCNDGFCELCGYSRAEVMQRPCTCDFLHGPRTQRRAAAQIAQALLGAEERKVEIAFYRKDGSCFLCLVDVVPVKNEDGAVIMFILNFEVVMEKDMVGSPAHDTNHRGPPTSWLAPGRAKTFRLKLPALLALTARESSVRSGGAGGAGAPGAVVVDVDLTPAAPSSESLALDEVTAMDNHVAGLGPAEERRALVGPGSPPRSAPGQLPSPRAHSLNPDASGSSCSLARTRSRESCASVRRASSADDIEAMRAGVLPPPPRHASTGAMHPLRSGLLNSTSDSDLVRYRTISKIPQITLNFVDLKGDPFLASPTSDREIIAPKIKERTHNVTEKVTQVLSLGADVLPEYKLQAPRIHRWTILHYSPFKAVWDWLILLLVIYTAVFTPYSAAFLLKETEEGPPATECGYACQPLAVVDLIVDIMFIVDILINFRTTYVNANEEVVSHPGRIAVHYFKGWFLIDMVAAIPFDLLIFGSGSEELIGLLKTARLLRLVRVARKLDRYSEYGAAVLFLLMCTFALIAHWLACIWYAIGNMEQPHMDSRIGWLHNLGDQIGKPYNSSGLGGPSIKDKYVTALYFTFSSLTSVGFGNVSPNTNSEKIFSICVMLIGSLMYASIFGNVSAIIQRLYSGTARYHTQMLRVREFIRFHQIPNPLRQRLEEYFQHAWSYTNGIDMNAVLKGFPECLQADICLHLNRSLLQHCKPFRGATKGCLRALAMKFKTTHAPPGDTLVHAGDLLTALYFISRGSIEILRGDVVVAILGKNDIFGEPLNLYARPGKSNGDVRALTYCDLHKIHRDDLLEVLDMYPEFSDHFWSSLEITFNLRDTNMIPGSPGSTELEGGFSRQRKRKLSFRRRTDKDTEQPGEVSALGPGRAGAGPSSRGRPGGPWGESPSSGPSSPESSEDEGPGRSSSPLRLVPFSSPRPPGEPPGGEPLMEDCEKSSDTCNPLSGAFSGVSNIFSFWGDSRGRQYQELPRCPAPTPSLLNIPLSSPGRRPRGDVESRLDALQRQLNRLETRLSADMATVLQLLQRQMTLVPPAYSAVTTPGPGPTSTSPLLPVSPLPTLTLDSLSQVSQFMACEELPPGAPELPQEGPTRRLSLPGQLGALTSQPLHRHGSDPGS

O=C(O[C@@H]1CC[C@@H](c2cccc(F)c2F)[C@@H](O)c2cccnc21)N1CCC(n2c(=O)[nH]c3ncccc32)CC1
Ki [1]: 4.3 nM

O=C(O[C@@H]1CC[C@@H](c2cccc(F)c2F)[C@H](O)c2cccnc21)N1CCC(n2c(=O)[nH]c3ncccc32)CC1
Ki [1]: 0.081 nM
fraction unbound [2]: 0.041
half-life [3]: 1.17 h
solubility [4]: 66 µg/mL (≈ 123 µM)

N[C@@H]1c2cccnc2[C@H](OC(=O)N2CCC(n3c(=O)[nH]c4ncccc43)CC2)CC[C@H]1c1cccc(F)c1F [RIMEGEPANT]
Ki [1]: 0.027 nM
IC50 (Cytochrome P450 2D6): ≥ 20000 nM
solubility [5]: 50 µg/mL (≈ 93.5 µM)
Activity (Homo sapiens): Non-toxic
Activity (Salmonella typhimurium): Non-toxic
IC50 (Cytochrome P450 2C9): ≥ 20000 nM
fraction unbound [2]: 0.069
concentration [6]: < 800 nM
Papp at 4 h, 100 µM [7]: 19 ×10⁻⁶ cm/s
inhibition (INH) [8]: Not Active
bioavailability [9]: 48%
concentration at 0.25 h [10]: 400 nM
IC50 (Cytochrome P450 1A2): ≥ 20000 nM
bioavailability [11]: 67%
IC50 (Cytochrome P450 2A6): ≥ 20000 nM
inhibition in vivo at 7 mg/kg (Callithrix jacchus [12]): > 65%
inhibition (HEK293): inactive
inhibition (INH) [13]: < 30%
half-life [3]: 1.38 h
bioavailability [14]: 45%
inhibition in vivo at 7 mg/kg (Callithrix jacchus [15]): 75%
IC50 (Cytochrome P450 2E1): ≥ 20000 nM
Papp at 4 h, 100 µM [16]: 32 ×10⁻⁶ cm/s
EC50 [17]: 0.14 nM
IC50 (Cytochrome P450 2B6): ≥ 20000 nM
IC50 (Cytochrome P450 2C19): ≥ 20000 nM

[N-]=[N+]=N[C@@H]1c2cccnc2[C@H](OC(=O)N2CCC(n3c(=O)[nH]c4ncccc43)CC2)CC[C@H]1c1cccc(F)c1F
Ki [1]: 0.066 nM

O=C(O[C@@H]1CC[C@H](c2cccc(F)c2F)[C@H](O)c2cccnc21)N1CCC(n2c(=O)[nH]c3ncccc32)CC1 (mixture of isomers)
Ki [1]: 0.67 nM
